Six compounds from patent US10711036B2, “MALT1 inhibitors and uses thereof” (Cornell University, priority 2015, dated 2020) can be followed below.

For test [1], the target named is T1, MALT1 (Homo sapiens (Human), UniProt Q9UDY8). The test is described as follows: X-ray co-crystal structure of compound and MALT1. The following applies: 2.0 angstrom resolution. It is filed as binding. The protocol: Compound 101 was incubated with MALT1 to form a complex, and the complex was purified and crystallized for structure determination. X-ray diffraction data was collected, and the compound 101-MALT1 structure was solved in 2.0 angstrom resolution. […] Exemplary evidence for the formation of the covalent bond is the existence of continuous electron density from compound 101 to the Cys464 residue of MALT1. The electron density is 2Fo−Fc map contoured at 1.0 sigma.

The subject of the next test is TMD8. The experiment in a line: Maximum killing effect on TMD8. It is filed as cell-based. The protocol: (§1) The maximum killing effects on cell-lines OCI-LY3, TMD8, and OCI-LY1 were also measured for select compounds at inhibitor concentration of 20 μM and 5 μM. TMD8 is another line of ABC type diffuse large-B cell lymphoma, while OCI-LY1 is a DLBCL line of the germinal center B-cell subtype.

The target in test [2] is T1, MALT1. The experiment in a line: Inhibition constants (Ki) for inhibition of MALT1. Format: biochemical. The settings on record: 100 nM MALT1 used for the assay. The protocol: For exemplary compounds of the disclosure, Ki for inhibition of MALT1 was measured (Table E11). A concentration of 100 nM MALT1 was used for the assay.
Test [3] concerns OCI-LY3. The test is described as follows: Maximum killing effect on OCI-LY3. It is filed as cell-based, human. The protocol:
as §1

Another test deals with OCI-LY1. The experiment in a line: Maximum killing effect on OCI-LY1. It is filed as cell-based. The protocol:
as §1

The test system of test [4] is OCI-LY3. The experiment in a line: Cell growth inhibition assay (CellTiter-Glo, 96 hours), OCI-LY3. The settings on record: OCI-LY3 cells, treated at t=0 and t=48 hours, ATP luminescence. Format: cell-based, human. As to the method: DLBCL cell lines were grown in exponential growth conditions during the 96 hours of treatment. Cells were treated twice: at t=0 and t=48 hours, and cell viability was determined by ATP quantification using a luminescent method ([…]-GLO, Promega, Madison, Wis.). Cell viability in drug-treated cells was normalized to vehicle controls (fractional viability) and results are given as 1-fractional viability.
Experiments were Performed in Triplicate.

Another test deals with RelB cleavage. The experiment in a line: Western blot for RelB cleavage in OCI-LY3 cells. It is filed as cell-based, human. The settings on record: OCI-LY3 cells pretreated with inhibitor, then 5 μM MG-132 for 2 hours. The protocol: FIG. 1A. Western blots for RelB and MALT1 after 30 minutes pretreatment with indicated doses of compounds or vehicle, followed by proteasome inhibitor MG-132 (5 μM) treatment for 2 hours in OCI-LY3. clev=cleavage product of RelB.
FIG. 1B. Western blots for RelB with indicated doses of compounds or vehicle in OCI-LY3.
Western blot: OCI-Ly3 cells (a line of human diffuse large B-cell lymphoma (ABC type)) were pre-treated for 30 minutes with indicated doses of MALT1 inhibitors followed by a 2-hour treatment with proteasome inhibitor MG-132 at 5 μM. Protein was then extracted in a PBS-based lysis buffer containing 1% NP-40. Equal amounts of total protein (50 to 75 μg) were separated on sodium dodecyl sulfate-polyacrylamide gel electrophoresis (SDS-PAGE), and electrotransferred onto nitrocellulose membranes. Membranes were incubated with primary antibodies (MALT1, from Santa Cruz Biotechnologies, Santa Cruz, Calif.; RELB from Cell Signaling, Danvers, Mass., and α-Tubulin from Sigma), followed by secondary antibodies conjugated to horseradish peroxidase, which were detected by chemiluminescence (Pierce, Thermo Scientific, Rockford, Ill.).
OCI-LY3 cells were pretreated with the an inhibitor at the desired concentration and subsequently treated with 5 μM MG-132, a proteasome inhibitor, for 2 hours.
Background: A western blot detects proteins with antibodies after separation by electrophoresis.

The Ki is a measure of affinity in units of concentration, obtained from inhibition or displacement. Usually GI50 stands for the concentration at which growth is held to half of that of the control. Low values mean greater sensitivity of the cells, high ones lower sensitivity of the cells.

Molecules are shown by their SMILES. Where a SMILES comes first, the peptide text is derived from it. [ ]: non-standard residue; d: D form. The star is where a group is joined. Hyp = O=C(O)[C@@H]1C[C@@H](O)CN1; NMeV = CN[C@H](C(=O)O)C(C)C; Pip = O=C(O)[C@@H]1CCCCN1; Cbz = O=C(OCc1ccccc1)*; CH2F = FC*

T1 sequence (Q9UDY8 whole entry): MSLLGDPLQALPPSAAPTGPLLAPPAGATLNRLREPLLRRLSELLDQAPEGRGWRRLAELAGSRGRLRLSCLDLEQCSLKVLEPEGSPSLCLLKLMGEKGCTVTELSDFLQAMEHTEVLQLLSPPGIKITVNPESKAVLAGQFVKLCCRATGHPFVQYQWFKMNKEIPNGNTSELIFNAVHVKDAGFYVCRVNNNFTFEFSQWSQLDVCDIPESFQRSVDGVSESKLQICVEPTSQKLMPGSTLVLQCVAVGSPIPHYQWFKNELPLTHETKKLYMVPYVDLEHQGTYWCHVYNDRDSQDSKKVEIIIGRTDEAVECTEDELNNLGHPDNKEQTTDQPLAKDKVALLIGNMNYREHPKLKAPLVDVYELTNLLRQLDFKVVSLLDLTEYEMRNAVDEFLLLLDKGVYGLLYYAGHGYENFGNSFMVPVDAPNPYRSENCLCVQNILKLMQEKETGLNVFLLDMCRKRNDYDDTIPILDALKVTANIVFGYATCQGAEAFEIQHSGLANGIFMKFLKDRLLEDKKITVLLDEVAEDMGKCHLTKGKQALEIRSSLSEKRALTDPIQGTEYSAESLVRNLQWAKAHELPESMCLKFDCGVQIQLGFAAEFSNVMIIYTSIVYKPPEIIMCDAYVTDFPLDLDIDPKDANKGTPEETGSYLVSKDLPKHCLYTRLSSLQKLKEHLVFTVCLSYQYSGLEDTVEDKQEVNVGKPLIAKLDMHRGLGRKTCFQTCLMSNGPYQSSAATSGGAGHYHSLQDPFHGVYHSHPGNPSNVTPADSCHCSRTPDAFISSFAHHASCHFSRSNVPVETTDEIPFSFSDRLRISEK

As for `CC(C)[C@H](NC(=O)OCc1ccccc1)C(=O)N1CCC[C@H]1C(=O)N[C@@H](CCCNC(=N)N)C(=O)CF` [Compound 101, Benzyl ((S)-1-((S)-2-(((S)-1-fluoro-6-guanidino-2-oxohexan-3-yl)carbamoyl)pyrrolidin-1-yl)-3-methyl-1-oxobutan-2-yl)carbamate 2,2,2-trifluoroacetate] (Cbz-Val-Pro-Arg-CH2F), the “Covalent bond to Cys464 of MALT1 in co-crystal structure” value on MALT1 [1] is reported as “formation of a covalent bond”. The Maximum killing effect with TMD8 (TMD8, 5 μM) is recorded as 50%; in the test with TMD8 (TMD8, 20 μM) it was 63%; with OCI-LY3 [3] (OCI-LY3, 5 μM) it was 70%; with OCI-LY3 [3] (OCI-LY3, 20 μM) it was 79%; with OCI-LY1 (OCI-LY1, 5 μM) it was below 0%; in the test on OCI-LY1 (OCI-LY1, 20 μM), 7%. Further, the Ki on MALT1 [2] amounted to 40 nM. For the same compound, the GI50 with OCI-LY3 [4] (Homo sapiens) was determined as 8520 nM.

For the compound `CC(C)[C@H](NC(=O)OCc1ccccc1)C(=O)N1CCCC[C@H]1C(=O)N[C@@H](CCCNC(=N)N)C(=O)CF` [Compound 107] (Cbz-Val-[Pip]-Arg-CH2F), the “Inhibition of RelB cleavage (Western blot)” value (“Inhibition of RelB cleavage” for short) in the test with RelB cleavage was “inhibition of RelB cleavage”. Also, the Maximum killing effect in the test with TMD8 (TMD8, 5 μM) is reported as 29%; in the test on TMD8 (TMD8, 20 μM) it was 58%; in the test with OCI-LY3 [3] (OCI-LY3, 5 μM), 38%; in the test with OCI-LY3 [3] (OCI-LY3, 20 μM), 85%; in the test with OCI-LY1 (OCI-LY1, 5 μM), 3%; with OCI-LY1 (OCI-LY1, 20 μM), 11%. For the same compound, at MALT1 [2], the inhibitory constant (Ki) came to 40 nM. Besides, in the test on OCI-LY3 [4] (Homo sapiens), the GI50 was determined as 730 nM.

Regarding `CC(C)[C@H](NC(=O)OCc1ccccc1)C(=O)N1C[C@H](O)C[C@H]1C(=O)N[C@@H](CCCNC(=N)N)C(=O)CF` [Compound 109] (Cbz-Val-[Hyp]-Arg-CH2F), the “Inhibition of RelB cleavage” value in the test with RelB cleavage is recorded as “inhibition of RelB cleavage”. This compound had a Ki on MALT1 [2] of 53 nM. For the same compound, the 50% growth inhibitory concentration (GI50) in the test on OCI-LY3 [4] (Homo sapiens) was 290 nM.

For `CC(C)[C@@H](C(=O)N1CCC[C@H]1C(=O)N[C@@H](CCCNC(=N)N)C(=O)CF)N(C)C(=O)OCc1ccccc1` [Compound 112] (Cbz-[NMeV]-Pro-Arg-CH2F), the “Inhibition of RelB cleavage” value in the test on RelB cleavage is “inhibition of RelB cleavage”. Besides, the Maximum killing effect in the test with TMD8 (TMD8, 20 μM) was found to be 66%; in the test on OCI-LY3 [3] (OCI-LY3, 5 μM), 28%; in the test on OCI-LY3 [3] (OCI-LY3, 20 μM), 51%; with OCI-LY1 (OCI-LY1, 5 μM), 5%; with OCI-LY1 (OCI-LY1, 20 μM), 2%. Moreover, the Ki on MALT1 [2] was 808 nM. The same compound registered a concentration for 50% growth inhibition (GI50) in the test on OCI-LY3 [4] (Homo sapiens) above 20000 nM.

Turning to `CC(C)[C@H](NC(=O)c1ccc(Br)cc1)C(=O)N1CCC[C@H]1C(=O)N[C@@H](CCCNC(=N)N)C(=O)CF` [Compound 116], in the test on RelB cleavage, the “Inhibition of RelB cleavage” value is listed as “inhibition of RelB cleavage”. In addition, the Maximum killing effect in the test with TMD8 (TMD8, 20 μM) is reported as 76%; in the test with OCI-LY3 [3] (OCI-LY3, 20 μM), 90%; with OCI-LY1 (OCI-LY1, 20 μM) it was 19%. Also, on MALT1 [2], the affinity, expressed as Ki, was 10 nM. In the test on OCI-LY3 [4] (Homo sapiens), this compound gave a concentration for 50% growth inhibition (GI50) of 130 nM.

As for `CC(C)C[C@H](NC(=O)OCc1ccccc1)C(=O)N(C)[C@H](C(=O)N1CCC[C@H]1C(=O)N[C@@H](CCCNC(=N)N)C(=O)CF)C(C)C` [Compound 203] (Cbz-L[NMeV]PR-CH2F), the “Inhibition of RelB cleavage” value in the test with RelB cleavage was “inhibition of RelB cleavage”. Also, the Maximum killing effect in the test with TMD8 (TMD8, 20 μM) was 59%; in the test on OCI-LY3 [3] (OCI-LY3, 20 μM) it was 79%; in the test with OCI-LY1 (OCI-LY1, 20 μM) it was 3%. In the test on OCI-LY3 [4], this compound registered a GI50 of 819 nM.
